The text below walks through data of US20250051344A1, “BIFUNCTIONAL SELECTIVE DEGRADERS OF SMARCA2 AND THERAPEUTIC USES THEREOF” (Nurix Therapeutics, Inc., priority 2023, published 2025).

Experiment [1] deals with T1, SMARCA2 (Homo sapiens, UniProt P51531).
T1 construct: endogenous in cells
Description: SMARCA2 Cellular Degradation Assay (Western blot analysis on Jess platform). It is filed as cell-based. As to conditions: for DC50 / Dmax: cellular degradation; for Fold Selectivity SMARCA4/2: ratio DC50 SMARCA4 / DC50 SMARCA2. The essentials: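 SMARCA2 protein in lysates of cells isolated from tumors was measured by capillary immunoassay at 5 μg protein per capillary, using actin as loading reference; degradation was expressed as percent SMARCA2 left compared with vehicle-treated samples.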
(Immunoblotting shows a protein as a band on a membrane.)

Experiment [2] deals with T2, SMARCA4 (Homo sapiens, UniProt P51532).
T2 construct: endogenous in cells
In words: Cellular degradation assay, SMARCA4 (Table 1). The format is cell-based.

T1 sequence (P51531 whole entry, species assumed): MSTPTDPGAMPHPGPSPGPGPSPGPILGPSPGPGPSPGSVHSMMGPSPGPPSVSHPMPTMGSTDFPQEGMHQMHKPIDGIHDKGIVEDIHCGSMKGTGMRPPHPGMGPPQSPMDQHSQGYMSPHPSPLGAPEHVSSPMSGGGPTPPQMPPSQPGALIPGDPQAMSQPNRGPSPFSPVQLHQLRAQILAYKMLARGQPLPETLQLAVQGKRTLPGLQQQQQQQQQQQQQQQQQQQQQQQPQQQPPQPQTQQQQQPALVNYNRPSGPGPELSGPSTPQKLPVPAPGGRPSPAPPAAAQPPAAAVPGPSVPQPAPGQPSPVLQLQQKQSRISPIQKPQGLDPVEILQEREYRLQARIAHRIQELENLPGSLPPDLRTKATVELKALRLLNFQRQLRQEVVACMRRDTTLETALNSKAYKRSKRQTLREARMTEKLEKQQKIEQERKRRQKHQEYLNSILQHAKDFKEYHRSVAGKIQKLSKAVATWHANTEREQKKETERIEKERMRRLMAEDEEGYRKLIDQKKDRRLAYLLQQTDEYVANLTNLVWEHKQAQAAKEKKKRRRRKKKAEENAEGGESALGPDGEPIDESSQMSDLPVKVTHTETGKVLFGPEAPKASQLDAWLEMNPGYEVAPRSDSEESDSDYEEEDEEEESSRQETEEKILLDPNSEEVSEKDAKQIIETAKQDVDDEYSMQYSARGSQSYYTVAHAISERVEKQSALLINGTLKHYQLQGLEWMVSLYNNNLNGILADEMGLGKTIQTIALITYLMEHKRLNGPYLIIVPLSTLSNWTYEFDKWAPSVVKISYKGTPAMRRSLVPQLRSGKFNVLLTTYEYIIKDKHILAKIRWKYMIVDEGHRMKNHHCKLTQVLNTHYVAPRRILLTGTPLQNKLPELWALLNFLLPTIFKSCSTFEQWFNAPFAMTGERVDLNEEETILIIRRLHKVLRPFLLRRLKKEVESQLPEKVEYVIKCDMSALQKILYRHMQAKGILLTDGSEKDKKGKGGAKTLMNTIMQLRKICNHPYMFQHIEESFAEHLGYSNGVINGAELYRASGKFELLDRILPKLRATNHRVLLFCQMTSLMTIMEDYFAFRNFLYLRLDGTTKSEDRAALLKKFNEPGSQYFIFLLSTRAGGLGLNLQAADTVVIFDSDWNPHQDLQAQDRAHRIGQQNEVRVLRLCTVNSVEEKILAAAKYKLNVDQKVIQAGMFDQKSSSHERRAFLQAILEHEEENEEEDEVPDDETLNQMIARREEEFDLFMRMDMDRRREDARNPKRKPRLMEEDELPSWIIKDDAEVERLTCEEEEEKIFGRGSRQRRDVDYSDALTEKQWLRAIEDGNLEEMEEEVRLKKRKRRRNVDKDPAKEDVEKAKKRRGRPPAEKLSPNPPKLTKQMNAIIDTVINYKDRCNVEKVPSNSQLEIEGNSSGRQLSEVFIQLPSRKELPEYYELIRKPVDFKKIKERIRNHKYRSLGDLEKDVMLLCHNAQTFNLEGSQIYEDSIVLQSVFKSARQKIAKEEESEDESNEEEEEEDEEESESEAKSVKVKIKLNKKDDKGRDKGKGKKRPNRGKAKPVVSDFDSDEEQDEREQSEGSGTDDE
T2 sequence (P51532 whole entry, species assumed): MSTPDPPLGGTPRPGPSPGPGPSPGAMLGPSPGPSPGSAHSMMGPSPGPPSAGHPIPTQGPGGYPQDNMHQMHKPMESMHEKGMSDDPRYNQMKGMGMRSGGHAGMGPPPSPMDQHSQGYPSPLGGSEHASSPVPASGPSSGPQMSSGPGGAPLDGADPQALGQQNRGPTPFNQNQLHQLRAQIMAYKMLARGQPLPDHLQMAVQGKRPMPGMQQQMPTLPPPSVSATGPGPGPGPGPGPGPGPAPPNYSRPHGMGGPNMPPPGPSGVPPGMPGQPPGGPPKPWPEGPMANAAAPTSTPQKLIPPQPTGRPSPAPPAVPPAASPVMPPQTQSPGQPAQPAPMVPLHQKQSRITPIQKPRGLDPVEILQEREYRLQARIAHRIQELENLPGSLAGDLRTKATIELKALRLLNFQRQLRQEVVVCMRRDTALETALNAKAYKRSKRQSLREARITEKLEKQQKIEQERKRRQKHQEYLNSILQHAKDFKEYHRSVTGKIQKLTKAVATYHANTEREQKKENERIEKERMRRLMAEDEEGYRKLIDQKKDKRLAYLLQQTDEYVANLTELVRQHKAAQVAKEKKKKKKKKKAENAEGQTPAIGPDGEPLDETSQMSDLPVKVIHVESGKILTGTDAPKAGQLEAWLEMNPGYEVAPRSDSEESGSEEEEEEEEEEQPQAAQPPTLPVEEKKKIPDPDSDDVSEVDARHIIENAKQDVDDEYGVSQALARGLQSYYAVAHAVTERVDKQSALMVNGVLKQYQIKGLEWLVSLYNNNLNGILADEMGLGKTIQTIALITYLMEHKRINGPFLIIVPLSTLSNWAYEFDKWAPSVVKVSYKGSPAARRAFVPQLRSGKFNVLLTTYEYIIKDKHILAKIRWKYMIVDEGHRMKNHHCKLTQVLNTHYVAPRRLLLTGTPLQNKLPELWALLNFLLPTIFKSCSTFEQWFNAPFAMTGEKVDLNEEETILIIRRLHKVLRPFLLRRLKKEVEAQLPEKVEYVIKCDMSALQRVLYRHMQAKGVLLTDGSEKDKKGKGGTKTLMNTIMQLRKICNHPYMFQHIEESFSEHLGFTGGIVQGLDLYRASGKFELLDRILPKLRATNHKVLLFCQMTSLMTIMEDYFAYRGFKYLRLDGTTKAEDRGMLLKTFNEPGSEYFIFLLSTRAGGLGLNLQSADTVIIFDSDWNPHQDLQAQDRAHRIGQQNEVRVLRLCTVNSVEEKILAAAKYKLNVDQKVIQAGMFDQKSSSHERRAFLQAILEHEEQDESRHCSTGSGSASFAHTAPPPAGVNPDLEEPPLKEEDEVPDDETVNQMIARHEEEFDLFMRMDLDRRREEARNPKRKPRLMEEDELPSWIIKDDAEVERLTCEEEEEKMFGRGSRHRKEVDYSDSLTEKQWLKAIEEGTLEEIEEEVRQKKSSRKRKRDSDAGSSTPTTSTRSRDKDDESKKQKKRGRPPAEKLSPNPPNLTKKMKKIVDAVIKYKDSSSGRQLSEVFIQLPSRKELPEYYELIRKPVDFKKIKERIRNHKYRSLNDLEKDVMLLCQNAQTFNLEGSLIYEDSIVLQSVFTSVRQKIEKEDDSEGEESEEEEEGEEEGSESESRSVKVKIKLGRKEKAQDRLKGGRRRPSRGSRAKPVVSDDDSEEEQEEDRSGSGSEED

As usually defined, the DC50 is the midpoint of the concentration-degradation curve. Low readings indicate a more potent degrader, high ones a less potent degrader. By Dmax is commonly meant the largest share of the target that was removed. Lower therefore signals shallow degradation. For the molecule `Cn1nc(N2CCC(=O)NC2=O)c2cccc(N3CCC(CN4CC5(C4)CN(C(=O)C4(c6ccccc6)CCN(c6cnnc(-c7ccccc7O)c6)CC4)C5)CC3)c21` [Example 123, 1-(7-{4-[(6-{1-[6-(2-hydroxyphenyl)pyridazin-4-yl]-4-phenylpiperidine-4-carbonyl}-2,6-diazaspiro[3.3]heptan-2-yl)methyl]piperidin-1-yl}-1-methyl-1H-indazol-3-yl)-1,3-diazinane-2,4-dione], in experiment [1], the DC50 is 68.1 nM, the Dmax was 66.8% and the “Fold Selectivity SMARCA4/2” value is listed as 147. Further, in experiment [2], the Dmax is 35%.
Regarding `CC(C)c1cc(C2(C(=O)N(C)C3CCN(C4COC5(CCN(c6ccc([C@H]7CCC(=O)NC7=O)cc6)CC5)C4)CC3)CCN(c3cnnc(-c4ccccc4O)c3)CC2)no1` (mixture of isomers) [Example 59, N-{1-[(3RS)-8-{4-[(3R)-2,6-dioxopiperidin-3-yl]phenyl}-1-oxa-8-azaspiro[4.5]decan-3-yl]piperidin-4-yl}-1-[6-(2-hydroxyphenyl)pyridazin-4-yl]-N-methyl-4-[5-(propan-2-yl)-1,2-oxazol-3-yl]piperidine-4-carboxamide], in experiment [1], it took 11.9 nM to reach half-maximal degradation (DC50), the Dmax turned out to be 72.8% and the “Fold Selectivity SMARCA4/2” value is given as 842. For the same molecule, in experiment [2], the Dmax is 26%.
Consider `O=C1CC[C@H](c2ccc(N3CCC(CN4CCCC4C4CCCCN4C(=O)C4(c5ccccc5)CCN(c5cnnc(-c6ccccc6O)c5)CC4)CC3)cc2)C(=O)N1` (stereo partly drawn) [Example 42, (3R)-3-[4-(4-{[2-(1-{1-[6-(2-hydroxyphenyl)pyridazin-4-yl]-4-phenylpiperidine-4-carbonyl}piperidin-2-yl)pyrrolidin-1-yl]methyl}piperidin-1-yl)phenyl]piperidine-2,6-dione], for which the Dmax came to 28.7% in experiment [1] and 9.32% in experiment [2]. In addition, in experiment [1], the “Fold Selectivity SMARCA4/2” value stood at 1.
`O=C1CC[C@H](c2ccc(N3CCC(CCN4CCC(N(C(=O)C5(c6ccccc6)CCN(c6cnnc(-c7ccccc7O)c6)CC5)C5CC5)CC4)CC3)cc2)C(=O)N1` [Example 74, N-cyclopropyl-N-{1-[2-(1-{4-[(3r)-2,6-dioxopiperidin-3-yl]phenyl}piperidin-4-yl)ethyl]piperidin-4-yl}-1-[6-(2-hydroxyphenyl)pyridazin-4-yl]-4-phenylpiperidine-4-carboxamide]: in experiment [1], the DC50 was found to be 1.88 nM, the Dmax was determined as 94.2% and the “Fold Selectivity SMARCA4/2” value was determined as 32. In experiment [2], it took 59.3 nM to reach half-maximal degradation (DC50) and the Dmax was 69.2%.
As to `CN(C(=O)C1(c2ccncc2)CCN(c2cnnc(-c3ccccc3O)c2)CC1)C1CCN(CCC2CCN(c3ccc([C@H]4CCC(=O)NC4=O)cc3)CC2)CC1` [Example 140, N-{1-[2-(1-{4-[(3R)-2,6-dioxopiperidin-3-yl]phenyl}piperidin-4-yl)ethyl]piperidin-4-yl}-1-[6-(2-hydroxyphenyl)pyridazin-4-yl]-N-methyl-4-(pyridin-4-yl)piperidine-4-carboxamide], in experiment [1], the DC50 is 3.79 nM, the Dmax was found to be 86.9% and the “Fold Selectivity SMARCA4/2” value is 2641. Besides, the Dmax in experiment [2] worked out at 31.2%.
Turning to `CN(C(=O)C1(c2cnn(C)c2)CCN(c2cnnc(-c3ccccc3O)c2)CC1)C1CCN(CC2CCN(c3ccc(C4CCC(=O)NC4=O)cc3)CC2)CC1` (racemic) [Example 89, rac-N-{1-[(1-{4-[(3R)-2,6-dioxopiperidin-3-yl]phenyl}piperidin-4-yl)methyl]piperidin-4-yl}-1-[6-(2-hydroxyphenyl)pyridazin-4-yl]-N-methyl-4-(1-methyl-1H-pyrazol-4-yl)piperidine-4-carboxamide], in experiment [1], the DC50 was determined as 3.8 nM, the Dmax was 82.1% and the “Fold Selectivity SMARCA4/2” value is on record as 2634. This molecule also gave a Dmax in experiment [2] of 47.3%.
The corresponding values for `CN(C(=O)C1(c2ccccc2)CCN(c2cnnc(-c3ccccc3O)c2)CC1)C1CCN([C@H]2COC3(CCN(c4ccc([C@H]5CCC(=O)NC5=O)cc4)CC3)C2)CC1` (single isomer, unassigned) [Example 149] are 7.34 nM, 84.9%, 1362 and 41%.
